Like-named read-outs stand apart in the source and are kept apart here.
How the values were obtained:
Experiment in all cases: Efficacy screening assay
Format in all cases: cell-based
[1] = system: HS729; conditions: HS729, muscle, 72 h
Method: (§1) The experiment was performed by Oncolead GmbH & Co. KG (Karlsfeld , Germany), based on a standardized screening procedure . Cell lines were purchased directly from the ATCC, NCI and DSMZ cell line c ollections. Cells used for the study had undergone less than 20 passages. To ensure the absence of potential contamination and wrong assignment, all cell lines were tested using a whole genome assay (Agilent, USA). All cell lines were grown as recommended by the suppliers and with addition of 100 U/mL penicillin G and 100 µg/mL; streptomycin. Cell growth and treatments were performed in Nunclon D 96 -well plates (NUNC, Germany). The optimal seeding density for each cell line was determined to ensure exponential growth for the duration of the experiment. All cells growing without anti-cancer agents were sub-conﬂuent by the end of the treatment, as determined by visual inspection.
(§2) After an initial 24 h pre-growth period, the compounds were added. The vehicle concentration […]
(§3) was 0.1% DMSO. After incubation at 37°C for 72 h, the culture medium was aspirated, and the cells were precipitated by the addition of 10% trichloroacetic acid (Sigma-Aldrich, Missouri, US). After overnight incubation at 4°C, the plates were washed three times with deionized water. The precipitates were then stained with SRB (0.4% wt/v sulforhodamine B solution in 1% acetic acid, Sigma-Aldrich, Missouri, US). Afterwards, the plates were washed six times with 1% acetic acid to remove unbound stain. After drying the plates at room temperature, the bound SRB was solubilized with 10 mM Tris base and the optical density was measured at 520 nm using a Victor2 plate reader (Perkin Elmer, Germany). Blank OD values were subtracted from mean OD values for each concentration. The nonlinear curve ﬁtting and EC50 calculations were per formed using XLﬁt and algorithm “205” (ID Business […]
(§4) For comparison of EC50 values in Figure 1F, one-way ANOVA with multiple comparison testing (Tukey) was performed. Multiplicity adjusted p -values for the EC50 with sorafenib versus resminostat for each cell line and comparison between cell lines for sorafenib are presented (95% confidence interval for significance testing). For comparison of EC50 data in Figure 2B, one-way ANOVA with multiple comparison testing (Tukey) was performed. Multiplicity adjusted p-values with 95% confidence interval was applied. For the invasion assays in Figure 4, one-way ANOVA with multiple comparison testing (Tukey) was performed. Multiplicity adjusted p-values with 95% confidence interval was applied. The adjusted p-values comparing vehicle control without vs. with platelets and compound

[2] = system: HT29; conditions: HT29, colon
Method: as §1, §2, §3, §4

[3] = system: MIAPACA2; conditions: Homo sapiens, MIA PaCa-2, MIAPACA2, pancreas, 72 h
Method: as §1, §2, §3, §4

[4] = system: T24; conditions: T24, bladder
Method: as §1, §2, §3, §4

[5] = system: NCIH292; conditions: NCIH292, lung
Method: as §1, §2, §3, §4

[6] = system: RDES; conditions: 72 h, bone
Method: as §1, §2, §3, §4

[7] = system: U2OS; conditions: 72 h, bone
Method: as §1, §2, §3, §4

[8] = system: HS578T; conditions: 72 h, breast
Method: as §1, §2, §3, §4

[9] = system: SF268; conditions: SF268, brain
Method: as §1, §2, §3, §4

[10] = system: OVCAR4; conditions: OVCAR4, ovary
Method: as §1, §2, §3, §4

[11] = system: SKMEL5; conditions: SKMEL5, skin
Method: as §1, §2, §3, §4

[12] = system: NCIH460; conditions: NCIH460, lung
Method: as §1, §2, §3, §4

[13] = system: SKNSH; conditions: 72 h, brain
Method: as §1, §2, §3, §4

[14] = system: SKBR3; conditions: SKBR3, breast
Method: as §1, §2, §3, §4

[15] = system: PANC1005; conditions: PANC1005, pancreas
Method: as §1, §2, §3, §4

[16] = system: PLCPRF5; conditions: Homo sapiens, PLC-PRF-5, PLCPRF5, liver, 72 h
Method: as §1, §2, §3, §4

[17] = log of EC50, negative, read-out: log(EC50) (converted)

Question: What does the source list for CN(C)Cc1ccc(S(=O)(=O)n2ccc(/C=C/C(=O)NO)c2)cc1 [resminostat, Resminostat]?
Answer: EC50 [1, 17]: 3.39 µM; EC50 ([1]; read-out: EC50): 3.35 µM; EC50 ([2]; 72 h, read-out: EC50): 3000 nM; EC50 ([2]; Homo sapiens, HT-29, 72 h, log of EC50, negative, read-out: log(EC50) (converted)): 3020 nM; EC50 ([2]; Homo sapiens, HT-29, 72 h, read-out: EC50): 3000 nM; EC50 [3, 17]: 2690 nM; EC50 ([3]; read-out: EC50): 2710 nM; EC50 ([4]; Homo sapiens, T-24, 72 h, log of EC50, negative, read-out: log(EC50) (converted)): 933 nM; EC50 ([4]; Homo sapiens, T-24, 72 h, read-out: EC50): 937 nM; EC50 ([4]; 72 h, read-out: EC50): 940 nM; EC50 ([5]; Homo sapiens, NCI-H292, 72 h, log of EC50, negative, read-out: log(EC50) (converted)): 6.31 µM; EC50 ([5]; Homo sapiens, NCI-H292, 72 h, read-out: EC50): 6.27 µM; EC50 ([5]; 72 h, read-out: EC50): 6.27 µM; EC50 ([6]; RD-ES, log of EC50, negative, read-out: log(EC50) (converted)): 3.55 µM; EC50 ([6]; RD-ES, read-out: EC50): 3.57 µM; EC50 ([6]; read-out: EC50): 3.57 µM; EC50 ([7]; Homo sapiens, log of EC50, negative, read-out: log(EC50) (converted)): 1170 nM; EC50 ([7]; Homo sapiens, read-out: EC50): 1160 nM; EC50 ([7]; read-out: EC50): 1160 nM; EC50 ([8]; Homo sapiens, Hs-578T, log of EC50, negative, read-out: log(EC50) (converted)): 3.98 µM; EC50 ([8]; Homo sapiens, Hs-578T, read-out: EC50): 4.03 µM; EC50 ([8]; read-out: EC50): 4.03 µM; EC50 ([9]; Homo sapiens, SF-268, 72 h, log of EC50, negative, read-out: log(EC50) (converted)): 2190 nM; EC50 ([9]; Homo sapiens, SF-268, 72 h, read-out: EC50): 2190 nM; EC50 ([9]; 72 h, read-out: EC50): 2190 nM; EC50 ([10]; Homo sapiens, OVCAR-4, 72 h, log of EC50, negative, read-out: log(EC50) (converted)): 4.07 µM; EC50 ([10]; Homo sapiens, OVCAR-4, 72 h, read-out: EC50): 4.04 µM; EC50 ([10]; 72 h, read-out: EC50): 4.04 µM; EC50 ([11]; Homo sapiens, SK-MEL-5, 72 h, log of EC50, negative, read-out: log(EC50) (converted)): 1700 nM; EC50 ([11]; Homo sapiens, SK-MEL-5, 72 h, read-out: EC50): 1710 nM; EC50 ([11]; 72 h, read-out: EC50): 1710 nM; EC50 ([12]; Homo sapiens, NCI-H460, 72 h, log of EC50, negative, read-out: log(EC50) (converted)): 2140 nM; EC50 ([12]; Homo sapiens, NCI-H460, 72 h, read-out: EC50): 2120 nM; EC50 ([12]; 72 h, read-out: EC50): 2120 nM; EC50 ([13]; Homo sapiens, SK-N-SH, log of EC50, negative, read-out: log(EC50) (converted)): 3.63 µM; EC50 ([13]; Homo sapiens, SK-N-SH, read-out: EC50): 3.67 µM; EC50 ([13]; read-out: EC50): 3.67 µM; EC50 ([14]; Homo sapiens, SK-BR-3, 72 h, log of EC50, negative, read-out: log(EC50) (converted)): 933 nM; EC50 ([14]; Homo sapiens, SK-BR-3, 72 h, read-out: EC50): 930 nM; EC50 ([14]; 72 h, read-out: EC50): 930 nM; EC50 ([15]; Homo sapiens, Panc1005, 72 h, log of EC50, negative, read-out: log(EC50) (converted)): 5.75 µM; EC50 ([15]; Homo sapiens, Panc1005, 72 h, read-out: EC50): 5.74 µM; EC50 ([15]; 72 h, read-out: EC50): 5.74 µM; EC50 [16, 17]: 3.39 µM; EC50 ([16]; read-out: EC50): 3.42 µM
